The values below come from patent US20220184058A1, “PHARMACEUTICAL COMPOSITION FOR TREATING AORTIC ANEURYSM” (National University Corporation Hamamatsu University School …, priority 2019, published 2022).

For this assay, the system named is aortic wall hypoxia-induced rat AAA model. Nature of the assay: Aortic wall hypoxia-induced rat AAA model: non-rupture survival / mortality due to rupture. The format is in vivo. The conditions noted are these: day of operation to Day 28 post operation, versus control group; trend toward improvement in survival rate. The source says: The action of Compound 1 and pitavastatin in rat AAA models (Non-Patent Document 3) induced by operation were examined. In the operation, the aortic wall of each model was separated from the surrounding tissues. After a catheter was inserted, the abdominal aorta was ligated together with a catheter with a thread was studied.
In the test, Compound 1 was manufactured according to the method disclosed in Patent Document 1 and mixed, in a proportion of 0.15%, with a normal diet (FR2, manufactured by Funabashi Farm Co., Ltd.), and the Compound 1-mixed diet was used. In regard to pitavastatin, 0.003% of pitavastatin calcium was mixed with a normal diet(FR2, manufactured by Funabashi Farm Co., Ltd.) and the pitavastatin-mixed diet was used.
Sprague-Dawley male rats (300 to 350 g: Japan SLC, Inc.) were used in the experiment. The rats were reared at room temperature of 25° C.±1° C., and allowed to freely take the feed and water.
The model was created according to the method disclosed in Non-Patent Document 3. Specifically, a rat AAA model was created by separating the rat aortic wall from the surrounding tissue, inserting a polyurethane catheter, and then ligating the abdominal aorta together with a plastic catheter with a monofilament thread, and inducing AAA. […]
In each group, up to 28 days post operation, the aneurysm diameter was measured by echo and comparison in survival was made. […]

As to `O=C(NCCCOc1ccc2[nH]c(=O)ccc2c1)N(C1CC1)[C@@H]1CCCC[C@H]1O` [Compound 1, (−)-6-[3-[3-cyclopropyl-3-[(1R,2R)-2-hydroxycyclohexyl]ureido]propoxy]-2(1H)-quinolinone], the “mortality rates due to rupture” value is “lower than that in the control group”.
